Test system: LS180 (KRAS-MUThetero)
Assay: Suppression of tumor growth in nude mice, LS180 transplanted
Format: in vivo
Conditions: nude mice with LS180 cells; 3.4 mmol KR12 via the caudal vein; FIG. 14B
Description: The below-mentioned 3 types of PBS solutions containing each type of cells were subcutaneously transplanted into the femurs of nude mice (i.e., HT29 into 7 mice, LS180 into 7 mice, and SW480 into 6 mice), and thereafter, at a time point in which a tumor adhered to the living body of each mouse and the tumor volume became approximately 100 mm^3, a drug was prepared with a composition of 3.4 mmol KR12 (1.36 mM KR12 dissolved in 2.5 μL of DMSO and 197.5 μL of PBS), or of a DMSO/PBS control (2.5 μL of DMSO and 197.5 μL of PBS). The prepared drug was subjected to sonication for 10 minutes, and 200 μL of the drug was administered to each mouse via the caudal vein thereof. The body weight and the tumor size were measured once three days, and the size of the tumor was measured by the method of 0.52×L×W×D(1/6×π×L×W×D).
LS180 (KRAS-MUThetero): (transplanted in an amount of 3×10^6 cells/100 μl PBS into the subcutis of each mouse; a cell line having a heterozygous KRAS gene codon 12 mutation G12D)

CC(=O)Nc1cn(C)c(C(=O)Nc2cc(C(=O)NCCC(=O)Nc3cn(C)c(C(=O)Nc4cn(C)c(C(=O)Nc5cc(C(=O)Nc6cn(C)c(C(=O)NCCCC(=O)Nc7cc(C(=O)Nc8cn(C)c(C(=O)NCCC(=O)Nc9cc(C(=O)Nc%10cc(C(=O)Nc%11ccc%12[nH]c(C(=O)N%13CC(CCl)c%14c%13cc(O)c%13ccccc%14%13)cc%12c%11)n(C)c%10)n(C)c9)n8)n(C)c7)n6)n(C)c5)n4)n3)n(C)c2)n1 (stereo not shown) [KR12]
tumor growth: significantly suppressed
